Values quoted from earlier work in US12285410B2, “Combination comprising HDAC inhibitor and CD137 agonist for cancer therapy” (4SC AG, priority 2018, dated 2025).

Legend:
[1] = system: different types of blood cancer; conditions: 24 heavily pre-treated patients

For `Cn1cc(-c2ccc(S(=O)(=O)n3ccc(/C=C/C(=O)Nc4ccccc4N)c3)cc2)cn1` [Compound 4SC-202, (E)-N-(2-aminophenyl)-3-(1-((4-(1-methyl-1H-pyrazol-4-yl)phenyl)sulfonyl)-1H-pyrrol-3-yl)acrylamide], the “complete remission (one patient), duration” value [1] is listed as 28 months, the “disease control, share of patients” value [1] is listed as 83% and the “long-term stabilization, share of patients” value [1] is listed as 50%. The “partial responder (one patient), duration” value [1] was 8 months and the tolerability [1] was “well tolerated with few and/or manageable adverse events”.
In the case of Urelumab, the “immunologic and pharmacodynamic activity” value (at 0.1 mg/kg every 3 weeks) is given as “immunologic and pharmacodynamic activity demonstrated by the induction of IFN-inducible genes and cytokines”, the tolerability (at 0.1 mg/kg every 3 weeks) is given as “relatively well tolerated” and the “treatment-related AE: fatigue” value (at 0.1 mg/kg every 3 weeks) is given as 16%. For the same compound, the “treatment-related AE: nausea” value (at 0.1 mg/kg every 3 weeks) was 13% and the maximum tolerated dose (every 3 weeks) was 0.1 mg/kg.
